pIC50, pKi: −log10 of the molar value.
Tests used:
[1] = target: Prostaglandin G/H synthase 1 (Homo sapiens, UniProt P23219); test: biochemical; format: tissue-based, Platelet; settings: platelet;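 note: inhibition of COX-1 enzyme activity, with arachidonic acid supplied as substrate; in other assays of this panel Not Active means under 50% inhibition at 10 µM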
[2] = target: Beta-1 adrenergic receptor (Homo sapiens, UniProt P08588); test: DRUGMATRIX: Adrenergic beta1 radioligand binding (ligand: [125I] Cyanopindolol); format: cell membranes, CHO-K1, Membrane; settings: Not Active = under 50% inhibition at 10 µM; for IC50: cho-k1
[3] = target: Beta-3 adrenergic receptor (Homo sapiens, UniProt P13945); test: DRUGMATRIX: Adrenergic beta3 radioligand binding (ligand: [125I] Cyanopindolol); format: cell membranes, HEK293, Membrane; settings: hek293; Not Active = under 50% inhibition at 10 µM
Thromboxane-A synthase = target: T1, Thromboxane-A synthase (Homo sapiens, UniProt P24557); test: biochemical; format: tissue-based, Platelet; settings: for IC50: platelet;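 for all read-outs here: enzyme inhibition assay with PGH2 supplied as substrate; in other assays of this panel Not Active means under 50% inhibition at 10 µM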
T1 sequence (P24557 whole entry): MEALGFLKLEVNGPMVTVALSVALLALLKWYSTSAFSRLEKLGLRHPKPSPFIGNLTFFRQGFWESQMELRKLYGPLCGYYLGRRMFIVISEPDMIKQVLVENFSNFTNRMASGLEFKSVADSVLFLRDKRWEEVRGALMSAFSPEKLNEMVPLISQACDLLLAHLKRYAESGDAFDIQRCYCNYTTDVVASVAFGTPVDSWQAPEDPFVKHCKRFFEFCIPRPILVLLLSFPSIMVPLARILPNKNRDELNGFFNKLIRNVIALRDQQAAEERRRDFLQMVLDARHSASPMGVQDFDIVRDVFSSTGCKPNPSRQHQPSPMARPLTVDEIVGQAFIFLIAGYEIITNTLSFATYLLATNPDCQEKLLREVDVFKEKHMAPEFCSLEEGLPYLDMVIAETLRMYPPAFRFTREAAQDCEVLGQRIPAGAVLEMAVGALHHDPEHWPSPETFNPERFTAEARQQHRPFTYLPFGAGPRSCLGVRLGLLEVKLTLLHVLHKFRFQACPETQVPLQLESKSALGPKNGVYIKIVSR

[4] = DRUGMATRIX: Serotonin (5-Hydroxytryptamine) 5-HT3 radioligand binding (ligand: [3H] GR-65630); format: cell membranes, Membrane; settings: hek293; Not Active = under 50% inhibition at 10 µM
[5] = target: T2, 5-hydroxytryptamine receptor 1A (Rattus norvegicus, UniProt P19327); format: cell membranes, CHO-K1, Membrane; settings: for IC50: cho-k1; for all read-outs here: in other assays of this panel Not Active means under 50% inhibition at 10 µM
T2 sequence (P19327 whole entry): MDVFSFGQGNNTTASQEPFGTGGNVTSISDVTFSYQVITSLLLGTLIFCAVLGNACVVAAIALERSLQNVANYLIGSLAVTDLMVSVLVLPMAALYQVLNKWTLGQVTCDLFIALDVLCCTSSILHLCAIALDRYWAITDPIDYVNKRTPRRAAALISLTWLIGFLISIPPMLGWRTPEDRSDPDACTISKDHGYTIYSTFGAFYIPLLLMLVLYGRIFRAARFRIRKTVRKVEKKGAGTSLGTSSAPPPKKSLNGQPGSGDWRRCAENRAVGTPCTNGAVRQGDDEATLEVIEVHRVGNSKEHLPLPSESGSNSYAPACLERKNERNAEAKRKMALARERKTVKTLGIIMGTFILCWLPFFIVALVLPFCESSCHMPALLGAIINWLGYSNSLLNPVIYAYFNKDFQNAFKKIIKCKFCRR

[6] = target: C-C chemokine receptor type 2 (Homo sapiens, UniProt P41597); format: cell membranes, CHO-K1, Membrane; settings: cho-k1; note: in other assays of this panel Not Active means under 50% inhibition at 10 µM
Cytochrome P450 2E1 = Cytochrome P450 2E1 (Homo sapiens, UniProt P05181); settings: bti-tn-5b1-4; note: in other assays of this panel Not Active means under 50% inhibition at 10 µM
[7] = target: 5-hydroxytryptamine receptor 2B (Homo sapiens, UniProt P41595); format: cell membranes, CHO-K1, Membrane; settings: for pIC50: read-out: IC50; for pKi: read-out: Ki; for IC50: cho-k1
D(3) dopamine receptor = D(3) dopamine receptor (Homo sapiens, UniProt P35462); test: DRUGMATRIX: Dopamine D3 radioligand binding (ligand: [3H] Spiperone); format: cell membranes, CHO, Membrane; settings: for IC50: cho
Melanocortin receptor 3 = Melanocortin receptor 3 (Homo sapiens, UniProt P41968); format: cell membranes, Membrane; settings: hek293; note: in other assays of this panel Not Active means under 50% inhibition at 10 µM
[8] = target: T3, Alpha-1D adrenergic receptor (Homo sapiens, UniProt P25100); format: cell membranes, HEK293, Membrane; settings: for pIC50: read-out: IC50; for pKi: read-out: Ki; for IC50: hek293
T3 sequence (P25100 whole entry): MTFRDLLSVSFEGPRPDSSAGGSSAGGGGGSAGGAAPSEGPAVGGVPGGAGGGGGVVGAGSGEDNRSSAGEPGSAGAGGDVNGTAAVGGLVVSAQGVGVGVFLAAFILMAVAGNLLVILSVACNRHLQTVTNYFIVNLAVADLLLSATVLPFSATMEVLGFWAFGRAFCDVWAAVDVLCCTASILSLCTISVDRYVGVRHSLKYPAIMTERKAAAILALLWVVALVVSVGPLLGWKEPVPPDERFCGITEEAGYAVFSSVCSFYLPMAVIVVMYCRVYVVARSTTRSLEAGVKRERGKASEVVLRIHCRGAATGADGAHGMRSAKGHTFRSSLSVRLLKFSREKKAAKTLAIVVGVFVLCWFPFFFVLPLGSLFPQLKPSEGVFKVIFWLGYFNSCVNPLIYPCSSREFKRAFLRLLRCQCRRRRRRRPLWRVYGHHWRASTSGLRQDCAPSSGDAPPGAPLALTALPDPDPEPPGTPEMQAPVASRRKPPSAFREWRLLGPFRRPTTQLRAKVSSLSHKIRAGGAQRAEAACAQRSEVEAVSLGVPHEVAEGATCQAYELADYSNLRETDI

[9] = target: T4, Alpha-1A adrenergic receptor (Rattus norvegicus, UniProt P43140); test: DRUGMATRIX: Alpha-1A adrenergic receptor radioligand binding (ligand: prazosin); format: cell membranes, Wistar, Submaxillary gland, Membrane; settings: Not Active = under 50% inhibition at 10 µM; for pIC50: read-out: IC50; for pKi: read-out: Ki
T4 sequence (P43140 whole entry): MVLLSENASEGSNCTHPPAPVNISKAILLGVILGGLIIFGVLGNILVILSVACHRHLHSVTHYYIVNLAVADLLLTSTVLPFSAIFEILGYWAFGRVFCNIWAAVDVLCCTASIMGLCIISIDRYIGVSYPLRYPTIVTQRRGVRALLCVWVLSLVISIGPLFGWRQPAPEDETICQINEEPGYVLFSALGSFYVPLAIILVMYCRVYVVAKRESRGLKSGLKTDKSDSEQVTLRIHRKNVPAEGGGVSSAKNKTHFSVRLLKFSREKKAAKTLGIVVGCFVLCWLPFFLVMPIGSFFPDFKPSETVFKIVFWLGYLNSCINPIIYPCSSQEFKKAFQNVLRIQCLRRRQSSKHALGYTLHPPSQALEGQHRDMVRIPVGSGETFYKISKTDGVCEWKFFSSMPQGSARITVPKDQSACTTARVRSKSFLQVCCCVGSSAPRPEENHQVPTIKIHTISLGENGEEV

Sequence of 5-hydroxytryptamine receptor 2B (P41595 whole entry): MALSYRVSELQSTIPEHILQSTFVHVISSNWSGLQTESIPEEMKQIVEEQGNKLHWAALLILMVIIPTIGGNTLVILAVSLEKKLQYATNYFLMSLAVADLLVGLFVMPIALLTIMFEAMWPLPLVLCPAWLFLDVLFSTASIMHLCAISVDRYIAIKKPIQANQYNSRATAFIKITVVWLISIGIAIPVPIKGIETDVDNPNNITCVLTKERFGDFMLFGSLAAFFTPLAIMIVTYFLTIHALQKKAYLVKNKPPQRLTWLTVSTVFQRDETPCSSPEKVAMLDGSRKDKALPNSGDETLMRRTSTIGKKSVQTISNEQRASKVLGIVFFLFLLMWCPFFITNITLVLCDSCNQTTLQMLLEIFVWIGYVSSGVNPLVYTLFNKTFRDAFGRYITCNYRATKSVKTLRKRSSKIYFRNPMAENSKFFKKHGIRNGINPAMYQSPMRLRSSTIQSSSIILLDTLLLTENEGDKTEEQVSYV
Sequence of C-C chemokine receptor type 2 (P41597 whole entry): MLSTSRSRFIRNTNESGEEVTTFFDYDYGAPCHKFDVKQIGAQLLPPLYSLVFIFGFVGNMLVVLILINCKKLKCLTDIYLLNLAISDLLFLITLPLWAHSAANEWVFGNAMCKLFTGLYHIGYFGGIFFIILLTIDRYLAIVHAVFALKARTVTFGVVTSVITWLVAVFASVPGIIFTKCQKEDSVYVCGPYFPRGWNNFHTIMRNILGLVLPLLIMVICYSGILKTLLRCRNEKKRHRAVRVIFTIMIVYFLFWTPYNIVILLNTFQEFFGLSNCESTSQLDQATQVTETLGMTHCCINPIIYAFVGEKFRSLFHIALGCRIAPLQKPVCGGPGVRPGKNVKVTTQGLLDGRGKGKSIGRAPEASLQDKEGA
Sequence of Melanocortin receptor 3 (P41968 whole entry): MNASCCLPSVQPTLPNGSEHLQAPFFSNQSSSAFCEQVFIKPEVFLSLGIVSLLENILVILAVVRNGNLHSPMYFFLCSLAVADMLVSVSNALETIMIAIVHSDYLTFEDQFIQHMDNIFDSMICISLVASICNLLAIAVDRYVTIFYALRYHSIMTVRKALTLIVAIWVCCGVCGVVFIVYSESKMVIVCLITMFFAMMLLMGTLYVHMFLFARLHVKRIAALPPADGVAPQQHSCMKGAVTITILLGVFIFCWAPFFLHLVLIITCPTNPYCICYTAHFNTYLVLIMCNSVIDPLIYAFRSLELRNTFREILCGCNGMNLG
Sequence of Prostaglandin G/H synthase 1 (P23219 whole entry): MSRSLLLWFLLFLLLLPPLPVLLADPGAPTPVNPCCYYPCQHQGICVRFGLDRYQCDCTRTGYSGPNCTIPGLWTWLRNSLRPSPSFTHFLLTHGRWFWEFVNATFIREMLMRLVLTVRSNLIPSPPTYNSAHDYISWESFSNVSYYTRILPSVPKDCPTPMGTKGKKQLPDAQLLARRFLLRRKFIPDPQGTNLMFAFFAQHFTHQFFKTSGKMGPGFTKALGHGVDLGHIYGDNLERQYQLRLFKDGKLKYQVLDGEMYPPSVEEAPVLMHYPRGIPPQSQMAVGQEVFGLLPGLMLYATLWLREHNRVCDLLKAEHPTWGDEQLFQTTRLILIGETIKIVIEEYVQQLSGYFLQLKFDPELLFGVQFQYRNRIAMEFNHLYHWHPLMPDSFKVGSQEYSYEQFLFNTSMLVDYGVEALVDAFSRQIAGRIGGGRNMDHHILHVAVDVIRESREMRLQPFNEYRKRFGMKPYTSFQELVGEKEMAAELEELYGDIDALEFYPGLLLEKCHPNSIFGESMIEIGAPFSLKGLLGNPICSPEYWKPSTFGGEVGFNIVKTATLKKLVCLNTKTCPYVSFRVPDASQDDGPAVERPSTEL
Sequence of Cytochrome P450 2E1 (P05181 whole entry): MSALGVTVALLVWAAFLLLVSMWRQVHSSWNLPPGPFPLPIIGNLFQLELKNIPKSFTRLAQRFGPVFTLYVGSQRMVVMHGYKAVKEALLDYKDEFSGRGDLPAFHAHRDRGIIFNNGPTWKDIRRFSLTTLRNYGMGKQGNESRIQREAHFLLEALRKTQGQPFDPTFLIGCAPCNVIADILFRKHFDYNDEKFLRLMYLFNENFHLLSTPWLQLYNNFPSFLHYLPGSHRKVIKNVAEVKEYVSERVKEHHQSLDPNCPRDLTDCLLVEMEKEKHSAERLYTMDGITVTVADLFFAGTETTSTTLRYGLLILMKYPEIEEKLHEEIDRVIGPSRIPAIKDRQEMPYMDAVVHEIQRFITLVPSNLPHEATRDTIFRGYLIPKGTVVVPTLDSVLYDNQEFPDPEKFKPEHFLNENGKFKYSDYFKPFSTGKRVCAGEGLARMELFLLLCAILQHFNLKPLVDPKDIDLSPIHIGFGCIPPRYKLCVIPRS
Sequence of Beta-3 adrenergic receptor (P13945 whole entry): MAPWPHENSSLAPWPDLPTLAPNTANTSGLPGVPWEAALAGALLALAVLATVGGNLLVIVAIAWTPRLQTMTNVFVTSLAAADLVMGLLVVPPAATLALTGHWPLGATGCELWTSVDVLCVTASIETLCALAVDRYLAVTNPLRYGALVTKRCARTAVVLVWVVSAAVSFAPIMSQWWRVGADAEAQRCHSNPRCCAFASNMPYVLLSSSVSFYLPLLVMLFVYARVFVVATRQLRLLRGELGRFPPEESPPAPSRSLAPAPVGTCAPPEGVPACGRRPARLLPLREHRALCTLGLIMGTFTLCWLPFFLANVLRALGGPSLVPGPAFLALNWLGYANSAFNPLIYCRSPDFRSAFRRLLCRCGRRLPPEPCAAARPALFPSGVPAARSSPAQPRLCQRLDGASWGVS
Sequence of Beta-1 adrenergic receptor (P08588 whole entry): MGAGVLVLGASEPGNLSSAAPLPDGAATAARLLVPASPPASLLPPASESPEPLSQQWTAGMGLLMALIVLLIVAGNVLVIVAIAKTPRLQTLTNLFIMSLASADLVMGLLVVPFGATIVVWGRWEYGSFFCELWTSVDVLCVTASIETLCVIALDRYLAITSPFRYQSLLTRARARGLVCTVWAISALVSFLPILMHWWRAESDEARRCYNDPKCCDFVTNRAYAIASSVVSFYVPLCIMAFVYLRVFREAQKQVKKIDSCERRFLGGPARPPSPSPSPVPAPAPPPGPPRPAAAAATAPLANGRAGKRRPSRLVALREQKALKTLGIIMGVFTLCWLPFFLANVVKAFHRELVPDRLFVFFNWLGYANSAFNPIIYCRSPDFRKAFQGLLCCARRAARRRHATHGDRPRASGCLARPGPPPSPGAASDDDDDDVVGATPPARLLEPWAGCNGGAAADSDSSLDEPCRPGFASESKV
Sequence of D(3) dopamine receptor (P35462 whole entry): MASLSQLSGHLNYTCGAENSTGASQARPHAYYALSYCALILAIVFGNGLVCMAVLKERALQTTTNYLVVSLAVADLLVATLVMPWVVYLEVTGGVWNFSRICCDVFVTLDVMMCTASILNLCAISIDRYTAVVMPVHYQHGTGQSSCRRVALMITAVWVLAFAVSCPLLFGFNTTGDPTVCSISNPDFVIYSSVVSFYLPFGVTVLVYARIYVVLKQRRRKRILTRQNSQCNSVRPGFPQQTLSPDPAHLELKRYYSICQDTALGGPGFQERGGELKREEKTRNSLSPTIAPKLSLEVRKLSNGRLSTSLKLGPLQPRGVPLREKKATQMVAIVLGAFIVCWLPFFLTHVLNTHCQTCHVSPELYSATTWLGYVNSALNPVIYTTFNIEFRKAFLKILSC

Row | Compound | IC50 [1] | IC50 [2] | IC50 [3] | IC50 (Thromboxane-A synthase) | IC50 [4] | Ki [4] | IC50 [5] | IC50 [6] | IC50 (Cytochrome P450 2E1) | Ki (Cytochrome P450 2E1) | IC50 (D(3) dopamine receptor) | IC50 (Melanocortin receptor 3) | IC50 [7] | IC50 [8] | IC50 [9] | further results
1 | CN(C)CCCC1(c2ccc(F)cc2)OCc2cc(C#N)ccc21 (centres undefined) [CITALOPRAM] | Not Active | Not Active | Not Active | Not Active | Not Active | Not Active | Not Active | Not Active | Not Active | Not Active | Not Active | Not Active |  |  |  | pIC50 [7]: 5.74; pKi [7]: 5.93; pIC50 [8]: 5.48; pKi [8]: 5.79; pIC50 [9]: 5.76; pKi [9]: 6.15
2 | C[C@]12CCC(=O)C=C1CC[C@@H]1[C@@H]2C(=O)C[C@@]2(C)[C@H]1CC[C@]2(O)C(=O)CO [CORTISONE] | Not Active | Not Active | Not Active | Not Active | Not Active | Not Active | Not Active | Not Active | Not Active | Not Active | Not Active | Not Active | Not Active | Not Active | Not Active | 
3 | CC1=Nc2ccc(Cl)cc2S(=O)(=O)N1 [DIAZOXIDE] | Not Active | Not Active | Not Active | Not Active | Not Active | Not Active | Not Active | Not Active | Not Active | Not Active | Not Active | Not Active | Not Active | Not Active | Not Active | 
4 | CC(=O)OCC(=O)[C@@]1(OC(C)=O)[C@@H](C)C[C@H]2[C@@H]3C[C@H](F)C4=CC(=O)C=C[C@]4(C)[C@@]3(F)[C@@H](O)C[C@@]21C [DIFLORASONE DIACETATE] | Not Active | Not Active | Not Active | Not Active | Not Active | Not Active | Not Active | Not Active | Not Active | Not Active | Not Active | Not Active | Not Active | Not Active | Not Active | 
5 | COc1ccc([C@@H]2Sc3ccccc3N(CCN(C)C)C(=O)[C@@H]2OC(C)=O)cc1 [DILTIAZEM] | Not Active | Not Active | Not Active | Not Active | Not Active | Not Active | Not Active | Not Active | Not Active | Not Active | Not Active | Not Active | Not Active | Not Active | Not Active | 
6 | CCc1ccc(C(=O)C(C)CN2CCCCC2)cc1 (centres undefined) [EPERISONE] | Not Active | Not Active | Not Active | Not Active | Not Active | Not Active | Not Active | Not Active | Not Active | Not Active | Not Active | Not Active | Not Active | Not Active | Not Active | 
7 | C=C1CC[C@H](O)C/C1=C/C=C1\CCC[C@]2(C)[C@@H]([C@H](C)/C=C/[C@H](C)C(C)C)CC[C@@H]12 [ERGOCALCIFEROL] | Not Active | Not Active | Not Active | Not Active | Not Active | Not Active | Not Active | Not Active | Not Active | Not Active | Not Active | Not Active | Not Active | Not Active | Not Active | 
8 | CN1C[C@H](C(=O)N[C@]2(C)O[C@@]3(O)[C@@H]4CCCN4C(=O)[C@H](Cc4ccccc4)N3C2=O)C=C2c3cccc4[nH]cc(c34)C[C@H]21 [ERGOTAMINE] | Not Active |  | Not Active |  | Not Active | Not Active |  | Not Active | Not Active | Not Active |  | Not Active |  |  |  | pIC50 ([2]; read-out: IC50): 5.38; pKi ([2]; read-out: Ki): 5.62; pIC50 (Thromboxane-A synthase; read-out: IC50): 5.51; pIC50 ([5]; read-out: IC50): 9.11; pKi ([5]; read-out: Ki): 9.35; pIC50 [7]: 8.46; pKi [7]: 8.66; pIC50 (D(3) dopamine receptor; read-out: IC50): 8.37; pKi (D(3) dopamine receptor; read-out: Ki): 8.83; pIC50 [8]: 7.31; pKi [8]: 7.62; pIC50 [9]: 8.09; pKi [9]: 8.49
9 | Cc1c(-c2ccccc2)oc2c(C(=O)OCCN3CCCCC3)cccc2c1=O [FLAVOXATE] | Not Active | Not Active | Not Active | Not Active | Not Active | Not Active | Not Active | Not Active | Not Active | Not Active | Not Active | Not Active | Not Active | Not Active | Not Active | 

— ChEMBL document CHEMBL1909046, “DrugMatrix in vitro pharmacology data”
